Drawing on PubChem BioAssay AID588780 (Sanford-Burnham Center for Chemical Genomics, 2011), this text covers IC50 for 32 molecules.

Activity calls are given as the source filed them.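 How the source made its calls: active means compounds whose fitted half-maximal concentration in the cell-protection dose series is at or below a set limit; inactive means the rest.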

In this assay the test system is H9c2 cardiomyocytes, 2-deoxyglucose stress, ATP luminescence, 2 h. Description: protection of cardiomyocytes from 2-deoxyglucose injury, dose response, cell-based, 2-deoxyglucose stress, uHTS hits (AID 588780).
One may read the IC50 as the midpoint of a concentration-inhibition curve. In the case of `N#CC1(NC(=O)COC(=O)Cn2[nH]c(=O)c3ccccc3c2=O)CCCCC1`, the IC50 was > 79 µM (inactive).

For the molecule `COC(=O)c1ccc(CSc2ccc3nnc(-c4cccc(F)c4)n3n2)o1`, the IC50 is 27.4 µM.

As for `COc1ccc(Br)cc1/C=N/NC(=O)CNC(=O)/C=C/c1ccccc1`, the IC50 is > 79 µM (inactive).

For the molecule `CCOc1ccc2[nH]c(=O)c(CN(Cc3nnnn3Cc3ccco3)C3CCCCC3)cc2c1`, the IC50 was > 79 µM (inactive).

As for `O=c1[nH]c2cc(O)ccc2c2ccccc12`, the IC50 was > 79 µM (inactive).

As to `O=C(CSc1nnc(Cc2cccs2)n1CCc1ccccc1)N1CCCc2ccccc21`, the IC50 is > 79 µM (inactive).

Consider `CCC(=O)OCCNc1cc(SCCC(=O)OC)c2nonc2c1[N+](=O)[O-]`, for which the IC50 was > 79 µM (inactive).

Take `CCOC(=O)C1=C(COC(=O)c2ccc([N+](=O)[O-])o2)NC(=O)NC1C` (configuration not stated): the IC50 is > 79 µM (inactive).

Turning to `Cc1cc(C)cc(OCC(=O)Nc2cccc(-c3nc4ncccc4o3)c2)c1`, the IC50 is > 79 µM (inactive).

Regarding `COc1ccc(NC(=O)c2cc(-c3ccccn3)nc3ccccc23)cc1S(=O)(=O)N(C)C`, the IC50 is > 79 µM (inactive).

Turning to `COCCn1nnnc1CN(CCc1ccccc1)Cc1cc2cc(OC)ccc2[nH]c1=O`, the IC50 is > 79 µM (inactive).

As to `COc1ccc(C(=O)COC(=O)c2ccc([N+](=O)[O-])s2)cc1OC`, the IC50 was > 79 µM (inactive).

In the case of `Cc1cc(C)cc(C(=O)Nc2ccc(NC(=O)c3cccs3)cc2)c1`, the IC50 is > 79 µM (inactive).

With `O=C1c2ccccc2NC(c2ccc(Cl)cc2Cl)N1O` (configuration not stated), the IC50 was 35 µM (inactive).

As for `CCc1c(C)nc(Nc2nc(C)c3ccc(OC)cc3n2)[nH]c1=O`, the IC50 is > 79 µM (inactive).

`Cn1c(-c2ccc(Cl)cc2)cnc1N`: the IC50 was > 79 µM (inactive).

`COc1ccc(-c2nn(-c3ccccc3)cc2C(=O)Nc2nccs2)cc1`: the IC50 was 12.1 µM.

On to `C[C@@H]1ON(C)[C@H]2C[C@H]3c4[nH]c5ccc(-c6ccc7c(c6)OCO7)cc5c4CCN3C[C@@H]12`, for which the IC50 is 54.8 µM (inactive).

Take `CCCCNC(=O)c1cn(-c2ccc(OCC)cc2)c(=O)c2cc(OC)c(OC)cc12`: the IC50 was 41.7 µM (inactive).

With `Cc1ccc(NS(=O)(=O)c2cc(-c3n[nH]c(=O)c4ccccc34)ccc2C)cc1`, the IC50 was > 79 µM (inactive).

With `COc1cccc(CN2CCN(C(=O)c3cc(-c4cccnc4)nc4ccc(C)cc34)CC2)c1`, the IC50 is 22.4 µM.

For `Cc1ccc(NC(=O)c2nc[nH]c2C(=O)NCCCNC(=O)c2[nH]cnc2C(=O)Nc2ccc(C)cc2)cc1`, the IC50 is 21.5 µM.

As to `O=C(CN1C(=O)C2CC=CCC2C1=O)Nc1nc(-c2ccc(F)c(F)c2)cs1` (configuration not stated), the IC50 was > 79 µM (inactive).

As to `CCOc1cc(NC(=O)C2CC2)c(OCC)cc1NC(=O)c1ccccn1`, the IC50 is > 79 µM (inactive).

For the molecule `CCCn1c(=O)c(C(=O)Nc2ccccc2)c(O)c2ccccc21`, the IC50 is > 79 µM (inactive).

With `Cc1c(O)c(CN2CCCCC2)cc2c1oc(=O)c1ccccc12`, the IC50 was > 79 µM (inactive).

Take `CCn1c(O)c(/C=N/N=C/c2ccccc2)c2ccc(C3=NNC(=O)CC3)cc21`: the IC50 is > 79 µM (inactive).

As for `COc1ccc(N=Cc2cc(Cl)ccc2O)cc1Cl`, the IC50 was > 79 µM (inactive).

For the molecule `CCCCCCSc1ccc([C@H]2N[C@@](Cc3ccccc3)(C(=O)OC)[C@H]3C(=O)N(C)C(=O)[C@@H]23)cc1`, the IC50 was > 79 µM (inactive).

Consider `COc1cccc(-c2cnc3c(NC=O)cc(-c4cccc(C(=O)N(C)C)c4)cn23)c1`, for which the IC50 was 12.3 µM.

As to `CC(C)(C)OC(=O)NCc1ccc(NC(=O)c2nc[nH]c2C(=O)NCCCCCCNC(=O)c2[nH]cnc2C(=O)Nc2ccc(CNC(=O)OC(C)(C)C)cc2)cc1`, the IC50 was > 79 µM (inactive).

Turning to `COCCn1nnnc1C(C(C)C)N(Cc1cccnc1)Cc1cc2cc(OC)ccc2[nH]c1=O` (configuration not stated), the IC50 is > 79 µM (inactive).
